Data reported in patent publication US10383880B2 (Reset Therapeutics, Inc., priority 2012, dated 2019).

Each compound was assayed on Per2-dLuc U2OS reporter cells (assay: Per2 assay for evaluating the potency of test compounds (high-throughput circadian assay)). Conditions: Homo sapiens, U2OS, stable U2OS reporter cells harboring Per2-dLuc; luminescence monitored over 4-5 days at 35° C.
Format: cell-based
Method in brief: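 After 24 h culture, U2OS cells carrying Per2-dLuc were serum-shock synchronized into explant medium with 1.0 mM luciferin (10 mM HEPES pH 7.0) and compound in 0.5% DMSO. Luminescence was recorded over 4–5 days at 35 °C. Circadian period, amplitude and phase were derived, and EC50 calculated.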
Work on `CC1(N(CC(O)Cn2c3ccccc3c3ccccc32)S(C)(=O)=O)CCCC1` (stereo not drawn) [Compound 143, N-(3-(9H-Carbazol-9-yl)-2-hydroxypropyl)-N-(1-methylcyclopentyl)methanesulfonamide] yielded an EC50 of 28 nM. `CC1(N(CC(O)Cn2c3ccccc3c3ccccc32)S(C)(=O)=O)COC1` (stereo not drawn) [Compound 144, N-(3-(9H-Carbazol-9-yl)-2-hydroxypropyl)-N-(3-methyloxetan-3-yl)methanesulfonamide] was tested, and the EC50 was 2160 nM. `CS(=O)(=O)N(CC(O)Cn1c2ccccc2c2ccccc21)C1(C(F)(F)F)CC1` (stereo not drawn) [Compound 145, N-(3-(9H-Carbazol-9-yl)-2-hydroxypropyl)-N-(1-(trifluoromethyl)cyclopropyl)methanesulfonamide] gave an EC50 of 1350 nM. In the case of `CS(=O)(=O)N(CC(O)Cn1c2ccccc2c2ccccc21)C1(C(F)(F)F)CCC1` (stereo not drawn) [Compound 146, N-(3-(9H-Carbazol-9-yl)-2-hydroxypropyl)-N-(1-(trifluoromethyl)cyclobutyl)methanesulfonamide], the EC50 is reported as 1160 nM. Compound `CS(=O)(=O)N(CC(O)Cn1c2ccccc2c2ccccc21)C1CC(F)C1` (stereo not drawn) [Compound 147, N-(3-(9H-Carbazol-9-yl)-2-hydroxypropyl)-N-(3-fluorocyclobutyl)methanesulfonamide] has an EC50 of 980 nM. Work on `CC(C)(N(CC(O)Cn1c2ccccc2c2ccccc21)S(C)(=O)=O)C(F)(F)F` (stereo not drawn) [Compound 148, N-(3-(9H-Carbazol-9-yl)-2-hydroxypropyl)-N-(1,1,1-trifluoro-2-methylpropan-2-yl)methanesulfonamide] yielded an EC50 of 489 nM. `CC(O)(CN(C1CCC1)S(C)(=O)=O)Cn1c2ccc(F)cc2c2cc(F)ccc21` (stereo not drawn) [Compound 149, N-Cyclobutyl-N-(3-(3,6-difluoro-9H-carbazol-9-yl)-2-hydroxy-2-methylpropyl)methanesulfonamide] was tested, and the EC50 was 7620 nM. With `CC(C)N(CC(C)(O)Cn1c2ccc(F)cc2c2cc(F)ccc21)S(C)(=O)=O` (stereo not drawn) [Compound 150, N-(3-(3,6-Difluoro-9H-carbazol-9-yl)-2-hydroxy-2-methylpropyl)-N-isopropylmethanesulfonamide] the EC50 was 5050 nM. `CCCN(CC(C)(O)Cn1c2ccc(F)cc2c2cc(F)ccc21)S(C)(=O)=O` (stereo not drawn) [Compound 151, N-(3-(3,6-Difluoro-9H-carbazol-9-yl)-2-hydroxy-2-methylpropyl)-N-propylmethanesulfonamide] gave an EC50 of 2260 nM. Work on `CC(O)(CNS(C)(=O)=O)Cn1c2ccc(F)cc2c2cc(F)ccc21` (stereo not drawn) [Compound 152, N-(3-(3,6-Difluoro-9H-carbazol-9-yl)-2-hydroxy-2-methylpropyl)methanesulfonamide] yielded an EC50 of 1910 nM. Work on `CCCN(CC(O)Cn1c2ccc(F)cc2c2cc(F)ccc21)S(C)(=O)=O` (stereo not drawn) [Compound 153, N-(3-(3,6-Difluoro-9H-carbazol-9-yl)-2-hydroxypropyl)-N-propylmethanesulfonamide] yielded an EC50 of 396 nM. Work on `CS(=O)(=O)NCC(O)Cn1c2ccc(F)cc2c2cc(F)ccc21` (stereo not drawn) [Compound 154, N-(3-(3,6-Difluoro-9H-carbazol-9-yl)-2-hydroxypropyl)methanesulfonamide] yielded an EC50 of 680 nM. Work on `COC1CCS(=O)(=O)N(CC(O)Cn2c3ccc(F)cc3c3cc(F)ccc32)C1` (stereo not drawn) [Compound 155, N-(3-(3,6-Difluoro-9H-carbazol-9-yl)-2-hydroxypropyl)-4-methoxy-1,2-thiazinane-1,1-dioxide] yielded an EC50 of 324 nM. `CCN(CC(O)Cn1c2ccc(F)cc2c2cc(F)ccc21)S(C)(=O)=O` (stereo not drawn) [Compound 156, N-(3-(3,6-ifluoro-9H-carbazol-9-yl)-2-hydroxypropyl)-N-ethylmethanesulfonamide] gave an EC50 of 471 nM. Work on `CCCN(CC(O)Cn1c2cc(F)ccc2c2ccc(F)cc21)S(C)(=O)=O` (stereo not drawn) [Compound 157, N-(3-(2,7-Difluoro-9H-carbazol-9-yl)-2-hydroxypropyl)-N-propylmethanesulfonamide] yielded an EC50 of 895 nM. `CCN(CC(O)Cn1c2cc(F)ccc2c2ccc(F)cc21)S(C)(=O)=O` (stereo not drawn) [Compound 158, N-(3-(2,7-Difluoro-9H-carbazol-9-yl)-2-hydroxypropyl)-N-ethylmethanesulfonamide] was tested, and the EC50 was 811 nM. `CC(C)N(CC(O)Cn1c2cc(F)ccc2c2ccc(F)cc21)S(C)(=O)=O` (stereo not drawn) [Compound 159, N-(3-(2,7-Difluoro-9H-carbazol-9-yl)-2-hydroxypropyl)-N-isopropylmethanesulfonamide] showed an EC50 of 505 nM. Work on `CS(=O)(=O)N(CC(O)Cn1c2cc(F)ccc2c2ccc(F)cc21)C1CCC1` (stereo not drawn) [Compound 160, N-Cyclobutyl-N-(3-(2,7-difluoro-9H-carbazol-9-yl)-2-hydroxypropyl)methanesulfonamide] yielded an EC50 of 605 nM. In the case of `CS(=O)(=O)N(CC(O)Cn1c2cc(F)ccc2c2ccc(F)cc21)C1CC1` (stereo not drawn) [Compound 161, N-Cyclopropyl-N-(3-(2,7-difluoro-9H-carbazol-9-yl)-2-hydroxypropyl)methanesulfonamide], the EC50 is reported as 1140 nM. `CS(=O)(=O)NCC(O)Cn1c2cc(F)ccc2c2ccc(F)cc21` (stereo not drawn) [Compound 162, N-(3-(2,7-Difluoro-9H-carbazol-9-yl)-2-hydroxypropyl)methanesulfonamide] gave an EC50 of 1990 nM. Work on `CCCN(CC(O)Cn1c2ccc(F)cc2c2ccc(F)cc21)S(C)(=O)=O` (stereo not drawn) [Compound 163, N-(3-(2,6-Difluoro-9H-carbazol-9-yl)-2-hydroxypropyl)-N-propylmethanesulfonamide] yielded an EC50 of 206 nM. For `CCN(CC(O)Cn1c2ccc(F)cc2c2ccc(F)cc21)S(C)(=O)=O` (stereo not drawn) [Compound 164, N-(3-(2,6-Difluoro-9H-carbazol-9-yl)-2-hydroxypropyl)-N-ethylmethanesulfonamide], the EC50 was 200 nM. `CC(C)N(CC(O)Cn1c2ccc(F)cc2c2ccc(F)cc21)S(C)(=O)=O` (stereo not drawn) [Compound 165, N-(3-(2,6-Difluoro-9H-carbazol-9-yl)-2-hydroxypropyl)-N-isopropylmethanesulfonamide] was tested, and the EC50 was 95 nM. Work on `CS(=O)(=O)N(CC(O)Cn1c2ccc(F)cc2c2ccc(F)cc21)C1CCC1` (stereo not drawn) [Compound 166, N-Cyclobutyl-N-(3-(2,6-difluoro-9H-carbazol-9-yl)-2-hydroxypropyl)methanesulfonamide] yielded an EC50 of 147 nM. For `CS(=O)(=O)N(CC(O)Cn1c2ccc(F)cc2c2ccc(F)cc21)C1CC1` (stereo not drawn) [Compound 167, N-Cyclopropyl-N-(3-(2,6-difluoro-9H-carbazol-9-yl)-2-hydroxypropyl)methanesulfonamide], the EC50 was 267 nM. With `CS(=O)(=O)NCC(O)Cn1c2ccc(F)cc2c2ccc(F)cc21` (stereo not drawn) [Compound 168, N-(3-(2,6-Difluoro-9H-carbazol-9-yl)-2-hydroxypropyl)methanesulfonamide] the EC50 was 391 nM. For `CN1CCCN(CC(O)Cn2c3ccc(F)cc3c3cc(F)ccc32)S1(=O)=O` (stereo not drawn) [Compound 169, 2-(3-(3,6-Difluoro-9H-carbazol-9-yl)-2-hydroxypropyl)-6-methyl-1,2,6-thiadiazinane-1,1-dioxide], the EC50 was 504 nM. With `CN1CCCN(CC(C)(O)Cn2c3ccc(F)cc3c3cc(F)ccc32)S1(=O)=O` (stereo not drawn) [Compound 170, 2-(3-(3,6-Difluoro-9H-carbazol-9-yl)-2-hydroxy-2-methylpropyl)-6-methyl-1,2,6-thiadiazinane-1,1-dioxide] the EC50 was 1260 nM. `O=S1(=O)NCCCN1CC(O)Cn1c2ccc(F)cc2c2cc(F)ccc21` (stereo not drawn) [Compound 171, 2-(3-(3,6-Difluoro-9H-carbazol-9-yl)-2-hydroxypropyl)-1,2,6-thiadiazinane-1,1-dioxide] showed an EC50 of 25 nM. Work on `CC(O)(CN1CCCNS1(=O)=O)Cn1c2ccc(F)cc2c2cc(F)ccc21` (stereo not drawn) [Compound 172, 2-(3-(3,6-Difluoro-9H-carbazol-9-yl)-2-hydroxy-2-methylpropyl)-1,2,6-thiadiazinane-1,1-dioxide] yielded an EC50 of 375 nM. `CN1CCN(CC(O)Cn2c3ccc(F)cc3c3cc(F)ccc32)S1(=O)=O` (stereo not drawn) [Compound 173] gave an EC50 of 86 nM. Compound `CN1CCN(CC(C)(O)Cn2c3ccc(F)cc3c3cc(F)ccc32)S1(=O)=O` (stereo not drawn) [Compound 174] has an EC50 of 80 nM. `O=S1(=O)NCCN1CC(O)Cn1c2ccc(F)cc2c2cc(F)ccc21` (stereo not drawn) [Compound 175] was tested, and the EC50 was 35 nM. `CC(O)(CN1CCNS1(=O)=O)Cn1c2ccc(F)cc2c2cc(F)ccc21` (stereo not drawn) [Compound 176] gave an EC50 of 125 nM. With `CC1CCN(CC(O)Cn2c3ccc(F)cc3c3cc(F)ccc32)S1(=O)=O` (stereo not drawn) [Compound 177] the EC50 was 202 nM. `CC1(C)CCN(CC(O)Cn2c3ccc(F)cc3c3cc(F)ccc32)S1(=O)=O` (stereo not drawn) [Compound 178, 2-(3-(3,6-Difluoro-9H-carbazol-9-yl)-2-hydroxypropyl)-5,5-dimethylisothiazolidine-1,1-dioxide] was tested, and the EC50 was 73 nM. `CC1CCN(CC(C)(O)Cn2c3ccc(F)cc3c3cc(F)ccc32)S1(=O)=O` (stereo not drawn) [Compound 179, 2-(3-(3,6-Difluoro-9H-carbazol-9-yl)-2-hydroxy-2-methylpropyl)-5-methylisothiazolidine-1,1-dioxide] showed an EC50 of 1200 nM. For `CC(O)(CN1CCC(C)(C)S1(=O)=O)Cn1c2ccc(F)cc2c2cc(F)ccc21` (stereo not drawn) [Compound 180, 2-(3-(3,6-Difluoro-9H-carbazol-9-yl)-2-hydroxy-2-methylpropyl)-5,5-dimethylisothiazolidine-1,1-dioxide], the EC50 was 1650 nM. In the case of `COC1CN(CC(O)Cn2c3ccc(F)cc3c3cc(F)ccc32)S(=O)(=O)C1` (stereo not drawn) [Compound 181, 2-(3-(3,6-Difluoro-9H-carbazol-9-yl)-2-hydroxypropyl)-4-methoxyisothiazolidine-1,1-dioxide], the EC50 is reported as 174 nM. With `COC1CN(CC(C)(O)Cn2c3ccc(F)cc3c3cc(F)ccc32)S(=O)(=O)C1` (stereo not drawn) [Compound 182, 2-(3-(3,6-Difluoro-9H-carbazol-9-yl)-2-hydroxy-2-methylpropyl)-4-methoxyisothiazolidine-1,1-dioxide] the EC50 was 241 nM. Work on `O=S1(=O)C(F)CCN1CC(O)Cn1c2ccc(F)cc2c2cc(F)ccc21` (stereo not drawn) [Compound 183, 2-(3-(3,6-Difluoro-9H-carbazol-9-yl)-2-hydroxypropyl)-5-fluoroisothiazolidine-1,1-dioxide] yielded an EC50 of 53 nM. Work on `CC(O)(CN1CCC(F)S1(=O)=O)Cn1c2ccc(F)cc2c2cc(F)ccc21` (stereo not drawn) [Compound 184, 2-(3-(3,6-Difluoro-9H-carbazol-9-yl)-2-hydroxy-2-methylpropyl)-5-fluoroisothiazolidine-1,1-dioxide] yielded an EC50 of 155 nM.
